Consider 21 molecules from patent US10130714B2 (priority 2012, dated 2018).

“Also recorded” adds a separate entry of the source. Where two headings read alike, the source gives them in different places.

One series relates to A/WSN/1933 (H1N1) virus. Put plainly: Cytopathic prevention assay in MDCK cells, H1N1. The format is cell-based, influenza A/WSN/1933 (H1N1). The following applies: for anti-influenza activity (in words): H1N1 virus. The protocol:
The cytopathic prevention assays in Madin-Darby canine kidney (MDCK) cells were conducted to evaluate the anti-influenza activity. To our anticipation, the ZA-7-conjugates were potent inhibitors against human H1N1 virus (Table 2). The ZA-1-conjugates 9-12 also resumed anti-influenza activity in the cell-based assays. […] The anti-influenza activity could not be caused by caffeic esters alone. (Salomon, R. et al. Proc. Natl. Acad. Sci. U.S.A. 2007, 104, 12479)
The anti-flu activities of neuraminidase inhibitors were measured by the EC50 values that were the concentrations of NA inhibitor for 50% protection of the H1N1 CPE activities. Fifty μL diluted H1N1 at 100 TCID50 were mixed with equal volumes of NA inhibitors at varied concentrations. The mixtures were used to infect 100 μL of MDCK cells at 1×10^5 cells/mL in 96-wells. After 48 h incubation at 37° C. under 5.0% CO2, the cytopathic effects (CPE) were determined with CellTiter 96® AQueous Non-Radioactive Cell Proliferation Assay reagent as described above. Inhibitor EC50 value were determined by fitting the curve of percent CPE versus the concentrations of NA inhibitor using Graph Pad Prism 4.

Series [1] deals with neuraminidase of influenza A/WSN/1933 (H1N1) virus (Influenza A virus, UniProt P03470). Put plainly: biochemical. The format is biochemical.
Sequence of neuraminidase of influenza A/WSN/1933 (H1N1) virus (P03470 whole entry, looked up): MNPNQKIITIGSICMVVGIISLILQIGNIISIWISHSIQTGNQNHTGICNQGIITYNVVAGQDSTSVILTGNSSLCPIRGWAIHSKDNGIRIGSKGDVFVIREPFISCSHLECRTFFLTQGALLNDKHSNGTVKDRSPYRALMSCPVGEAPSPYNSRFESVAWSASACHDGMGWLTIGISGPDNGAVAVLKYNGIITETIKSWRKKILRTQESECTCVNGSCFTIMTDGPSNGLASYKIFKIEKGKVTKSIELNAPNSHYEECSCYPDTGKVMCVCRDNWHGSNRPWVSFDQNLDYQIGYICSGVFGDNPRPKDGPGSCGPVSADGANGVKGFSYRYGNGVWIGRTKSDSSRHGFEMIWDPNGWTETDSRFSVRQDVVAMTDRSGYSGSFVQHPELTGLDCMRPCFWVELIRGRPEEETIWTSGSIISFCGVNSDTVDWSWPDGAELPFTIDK
The subject of series [2] is mRNA encoding IL-6 in LPS-activated RAW264.7 cells. Type of series: cell-based.
The test system of series [3] is mRNA encoding TNF-α in LPS-activated RAW264.7 cells. Type of series: cell-based.
Series [4] deals with influenza A/Cal/07/2009 H1N1. Further details: species or system BALB/c mice. The following applies: mouse, in vivo.
The test system of series [5] is NIBRG-14 (A/VietNam/1194/2004) H5N1. The format is in vivo, BALB/c mice. Conditions: for survival of H5N1 infected mice (in words): 12 μmol/kg/day intranasal, 10 LD50 NIBRG-14, FIG. 17A/17B.
For series [6] the following is noted: humans; cited from earlier work.
For series [7], the system named is recombinant NIBRG-14 (A/Viet Nam/1194/2004) H5N1 virus. Put plainly: microbe, parasite or virus in culture. Type of series: cell-based, avian H5N1 influenza virus. Conditions: for EC50: Influenza A virus, H5N1, read-out: EC50 against avian H5N1 virus.
A further series deals with IFN-γ. Further details: species or system mice. Conditions: mouse, in vivo.
The subject of the next series is IL-6. The arrangement: species or system mice. The following applies: mouse, in vivo.
The conditions of series [8]: Sprague Dawley, rat.
Where [9] appears, read: Influenza A virus, MDCK, A/WSN/1933 (H1N1) virus, table data are ranges or single assay results, read-out: EC50 (nM), anti-influenza activity.
The mark [10] stands for this setting: A/WSN/1933 (H1N1) virus, table data are ranges or single assay results, read-out: EC50 (nM), anti-influenza activity.

Consider `Nc1ccc(O)c(C(=O)O)c1` [ME, mesalazine, reference compound], for which, in the series on A/WSN/1933 (H1N1) virus (setting [9]), the EC50 is above 100000 nM. In addition, the “NA inhibitory activity (in words)” value in series [1] is reported as “did not exhibit any NA inhibitory activity”. In addition, the “mRNA encoding IL-6” value in series [2] was “dose-dependent decreases”. In addition, the “mRNA encoding TNF-α” value in series [3] is “dose-dependent decreases”.

On to `CC(=O)N[C@H]1[C@H]([C@H](O)[C@H](O)CO)OC(C(=O)O)=C[C@@H]1N=C(N)N` [ZA, zanamivir, reference compound], for which, in [4], the “survival at day 14 / protection from virus-induced death” value is 10%. Further, the “survival of H1N1 infected mice (in words)” value in series [4] is listed as “all the mice died at day 12”. Moreover, the EC50 in the series with A/WSN/1933 (H1N1) virus (setting [10]) is 3.5 to 20.2 nM; in the series with A/WSN/1933 (H1N1) virus (read-out: EC50 (nM), anti-influenza activity, A/WSN/1933 (H1N1) virus, table data are ranges or single assay results), 14 nM; in series [7] it was 680 nM. The “survival of H5N1 infected mice (in words)” value in [5] is given as “did not improve the survival rate”. Moreover, in series [6], the bioavailability is around 5%.

For `CC(=O)NC1C(NC(=N)N)C=C(C(=O)O)OC1C(OC(=O)NCCCNC(=O)c1ccc2ccccc2c1O)C(O)CO` (centres unmarked) [ZA-7-HNAP-amide (8)], the EC50 in the series with A/WSN/1933 (H1N1) virus (setting [9]) came out at 6.6 nM. Moreover, in series [1], the IC50 worked out at 3.1 nM.

Consider `O=C(/C=C/c1ccc(O)c(O)c1)O[C@@H]1C[C@](O)(C(=O)O)C[C@@H](O)[C@H]1O` [chlorogenic acid, reference compound], for which the “anti-influenza activity (in words)” value in the series with A/WSN/1933 (H1N1) virus is “inactive”.

Take `CC(=O)NC1C(NC(=N)N)C=C(C(=O)O)OC1C(OC(=O)NCCCOC(=O)C=Cc1ccc2c(c1)OCO2)C(O)CO` (centres unmarked) [ZA-7-MCA (2)]: the IC50 in [1] is 5.4 to 7.9 nM.

Take `CC(=O)NC1C(NC(=N)N)C=C(C(=O)O)OC1C(OC(=O)NCCCOC(=O)c1ccc(O)c(O)c1)C(O)CO` (centres unmarked) [ZA-7-DHBA (5)]: the EC50 in the series on A/WSN/1933 (H1N1) virus (setting [9]) came to 53 nM. In addition, the IC50 in series [1] turned out to be 2.9 nM.

With “3,4-(methylenedioxy)cinnamic acid [MCA, reference compound]”, the EC50 in the series on A/WSN/1933 (H1N1) virus (setting [10]) is above 100000 nM. Also, the “NA inhibitory activity (in words)” value in series [1] is “did not exhibit any NA inhibitory activity”. The IC50 in [1] (read-out: IC50 (nM), influenza neuraminidase inhibition) was above 100000 nM. Moreover, the “mRNA encoding IL-6” value in [2] is listed as “dose-dependent decreases”. Also, in series [3], the “mRNA encoding TNF-α” value is recorded as “dose-dependent decreases”.

Consider `CC(=O)NC1C(NC(=N)N)C=C(C(=O)OCCCOC(=O)C=Cc2ccc(O)c(O)c2)OC1C(O)C(O)CO` (centres unmarked) [ZA-1-CA (9)], for which the EC50 in the series on A/WSN/1933 (H1N1) virus (setting [9]) stood at 25 nM. Further, in [1], the IC50 stood at 2850 nM.

As to `CC(=O)NC1C(NC(=N)N)C=C(C(=O)O)OC1C(OC(=O)NCCCOC(=O)C=Cc1ccc(O)c(O)c1)C(O)CO` (centres unmarked) [ZA-7-CA (1)], the “level of IFN-γ in serum” value in the series on IFN-γ is on record as “lower”. In series [4], the “protection of H1N1 virus infected mice” value is “greater protection than ZA, CA or ME”; the “protection of mice from influenza virus infection” value is recorded as “did not show significant protection”; the “survival of H1N1 infected mice (in words)” value was “all the mice died at day 12 except for those treated with conjugate 1; also recorded: all survived at day 14”; the “survival rate at day 14” value was determined as 40%. The EC50 with A/WSN/1933 (H1N1) virus (setting [9]) lay within 1.4 to 10.6 nM. For the same molecule, the “survival of H5N1 infected mice (in words)” value in series [5] is “all survived”. In the series with IL-6, the “level of IL-6 in serum” value is on record as “lower”. Also, in series [1], the IC50 lay in the range of 2.9 to 7.4 nM. Besides, in [7], the “potency relative to zanamivir against H5N1” value is recorded as “about 13 fold” and the EC50 was 50 nM. Besides, the “mRNA encoding IL-6” value in [2] was “dose-dependent decreases”. Besides, the “stability / enzymatic cleavage in plasma” value in series [8] is recorded as “released a degradation product ZA-7-HP (6)”. Also, the “mRNA encoding TNF-α” value in series [3] is listed as “dose-dependent decreases”.

For `O=C(O)c1ccc2ccccc2c1O` [HNAP, 1-hydroxy-2-naphthoic acid, reference compound], the EC50 with A/WSN/1933 (H1N1) virus (setting [9]) was above 100000 nM.

Turning to `O=C(/C=C/c1ccc(O)c(O)c1)OCCCO` [3-hydroxypropyl caffeate, reference compound], in the series with A/WSN/1933 (H1N1) virus, the “anti-influenza activity (in words)” value is “inactive”.

Turning to `O=C(O)/C=C/c1ccc(O)c(O)c1` [CA, caffeic acid, reference compound], the “survival of H1N1 infected mice (in words)” value in [4] is reported as “all the mice died at day 12”. Further, the EC50 in the series with A/WSN/1933 (H1N1) virus (setting [9]) was above 100000 nM. Also, the “NA inhibitory activity (in words)” value in series [1] is “did not exhibit any NA inhibitory activity”. The “mRNA encoding IL-6” value in series [2] is given as “dose-dependent decreases”. Further, in series [3], the “mRNA encoding TNF-α” value was “dose-dependent decreases”.

As to `CC(=O)NC1C(NC(=N)N)C=C(C(=O)OCCCOC(=O)c2cc(N)ccc2O)OC1C(O)C(O)CO` (centres unmarked) [ZA-1-ME (11)], the EC50 with A/WSN/1933 (H1N1) virus (setting [9]) turned out to be 16 nM. For the same molecule, the IC50 in series [1] was determined as 996 nM.

Consider `CC(C)(C)OC(=O)NCCCOC(=O)C=Cc1ccc(O)c(O)c1` [3-(tert-butoxyamido)propyl caffeate, reference compound], for which, in the series on A/WSN/1933 (H1N1) virus, the “anti-influenza activity (in words)” value was “inactive”.

Turning to `CC(=O)NC1C(NC(=N)N)C=C(C(=O)O)OC1C(OC(=O)NCCCO)C(O)CO` (centres unmarked) [ZA-7-HP (6), 5-Acetylamino-6-[2,3-dihydroxy-1-(3-hydroxypropylcarbamoyloxy)propyl]-4-guanidino-5,6-dihydro-4H-pyran-2-carboxylic acid], the IC50 in [1] was in the range of 11.7 to 19.8 nM. Further, in series [7], the EC50 was 820 nM.

`CC(=O)NC1C(NC(=N)N)C=C(C(=O)O)OC1C(OC(=O)NCCCOC(=O)c1cc(N)ccc1O)C(O)CO` (centres unmarked) [ZA-7-ME (3)]: in the series on IFN-γ, the “level of IFN-γ in serum” value is listed as “lower”. In addition, in series [4], the “protection of H1N1 virus infected mice” value was “greater protection than ZA, CA or ME; also recorded: good activity”. Moreover, in series [5], the “survival of H5N1 infected mice (in words)” value is given as “did not provide better protection effect than ZA”. Further, the “level of IL-6 in serum” value with IL-6 is given as “lower”. The molecule also displayed an IC50 in series [1] of 8.6 to 56.3 nM. In addition, the EC50 in series [7] was determined as 430 nM. In addition, in series [2], the “mRNA encoding IL-6” value is “dose-dependent decreases”. Moreover, the “mRNA encoding TNF-α” value in series [3] is given as “dose-dependent decreases”.

Take `CC(=O)NC1C(NC(=N)N)C=C(C(=O)O)OC1C(OC(=O)NCCCOC(=O)c1ccc2ccccc2c1O)C(O)CO` (centres unmarked) [ZA-7-HNAP (4)]: in the series on A/WSN/1933 (H1N1) virus (setting [9]), the EC50 was in the range of 50 to 168 nM. In [1], the IC50 was in the range of 0.7 to 3.6 nM.

Regarding `CC(=O)NC1C(NC(=N)NC(=O)C(C)c2ccc(CC(C)C)cc2)C=C(C(=O)O)OC1C(O)C(O)CO` (centres unmarked) [ZA-G-Ibu (47)], the EC50 in the series on A/WSN/1933 (H1N1) virus (setting [9]) lay within 18 to 20 nM. The IC50 in series [1] lay within 44 to 81 nM.

In the case of `CC(=O)NC1C(NC(=N)N)C=C(C(=O)OCCCOC(=O)C=Cc2ccc3c(c2)OCO3)OC1C(O)C(O)CO` (centres unmarked) [ZA-1-MCA (10)], the EC50 in the series on A/WSN/1933 (H1N1) virus (setting [9]) amounted to 28 nM. The IC50 in series [1] is 3990 nM.

In the case of `CC(=O)NC1C(NC(=N)N)C=C(C(=O)O)OC1C(OC(=O)NCCCNC(=O)C=Cc1ccc(O)c(O)c1)C(O)CO` (centres unmarked) [ZA-7-CA-amide (7)], in series [4], the “survival at day 14” value is recorded as 50%, the “survival at day 14 / protection from virus-induced death” value was determined as 100% and the “survival rate of H1N1 infected mice (in words)” value is on record as “did not improve the survival rate”. For the same molecule, in the series with A/WSN/1933 (H1N1) virus (setting [10]), the EC50 was determined as 5.9 nM. In addition, in the series on A/WSN/1933 (H1N1) virus (setting [9]), the EC50 was found to be 5.1 nM. Also, the “survival rate of H5N1 infected mice (in words)” value in series [5] (1.2 μmol/kg/day intranasal, FIG. 17B) is “improved survival rate”. The “survival of H5N1 infected mice (in words)” value in series [5] is given as “greater potency”. This molecule came in with an IC50 in series [1] of 41.3 to 60.3 nM.

Consider `CC(=O)NC1C(N=C(N)N)C=C(C(=O)OCCCOC(=O)c2ccc3ccccc3c2O)OC1C(O)C(O)CO` (centres unmarked) [ZA-1-HNAP (12)], for which the EC50 in the series on A/WSN/1933 (H1N1) virus (setting [9]) worked out at 48 nM. Moreover, in [1], it took 590 nM to reach half-maximal inhibition (IC50).
